In PMC7914897, “Cytotoxic Potential of a-Azepano- and 3-Amino-3,4-SeCo-Triterpenoids” (International Journal of Molecular Sciences, 2021):
Like-named read-outs stand apart in the source and are kept apart here.

Legend:
Ovarian Cancer subpanel = experiment: NCI-60 screen, subpanel; conditions: Homo sapiens; for IC (TGI): 48 h, read-out: TGI MG_MID; for GI50: read-out: GI50 MG_MID; for CC50: read-out: LC50 MG_MID
COLO 205 (Colon cancer) = experiment: NCI-60 screen (SRB, 48 h); conditions: for GI50: COLO 205; for IC (TGI): COLO 205, 48 h, read-out: TGI
SF-539 (CNS cancer) = experiment: NCI-60 screen (SRB, 48 h); conditions: Homo sapiens; for GI50: SF-539; for IC (TGI): SF-539, 48 h, read-out: TGI; for CC50: SF-539, read-out: LC50
CAKI-1 (Renal cancer) = experiment: NCI-60 screen (SRB, 48 h); conditions: for GI50 / IC (TGI) / CC50: Homo sapiens; for GI50: CAKI-1; for IC (TGI): CAKI-1, 48 h, read-out: TGI; for CC50: CAKI-1, read-out: LC50
NSC lung cancer subpanel = experiment: NCI-60 screen, subpanel; conditions: Homo sapiens; for IC (TGI): 48 h, read-out: TGI MG_MID; for GI50: read-out: GI50 MG_MID; for CC50: read-out: LC50 MG_MID
MOLT-4 (Leukemia) = experiment: NCI-60 screen (SRB, 48 h); conditions: Homo sapiens; for GI50: MOLT-4; for IC (TGI): MOLT-4, 48 h, read-out: TGI
PC-3 (Prostate cancer) = experiment: NCI-60 screen (SRB, 48 h); conditions: Homo sapiens; for GI50: PC-3; for IC (TGI): PC-3, 48 h, read-out: TGI; for CC50: PC-3, read-out: LC50
M14 (Melanoma) = experiment: NCI-60 screen (SRB, 48 h); conditions: Homo sapiens; for GI50: M14; for IC (TGI): M14, 48 h, read-out: TGI; for CC50: M14, read-out: LC50
HOP-62 (NSC lung cancer) = experiment: NCI-60 screen (SRB, 48 h); conditions: Homo sapiens; for GI50: HOP-62; for IC (TGI): HOP-62, 48 h, read-out: TGI
OVCAR-8 (Ovarian cancer) = experiment: NCI-60 screen (SRB, 48 h); conditions: for GI50 / IC (TGI): Homo sapiens; for GI50: OVCAR-8; for IC (TGI): OVCAR-8, 48 h, read-out: TGI
MDA-MB-435 (Melanoma) = experiment: NCI-60 screen (SRB, 48 h); assay type: cell-based; conditions: Homo sapiens; for GI50 / CC50: MDA-MB-435; for IC (TGI): MDA-MB-435, 48 h, read-out: TGI; for CC50: read-out: LC50 (the source's name)
786-0 (Renal cancer) = experiment: NCI-60 screen (SRB, 48 h); conditions: for GI50: 786-0; for IC (TGI): 786-0, 48 h, read-out: TGI
SK-OV-3 (Ovarian cancer) = experiment: NCI-60 screen (SRB, 48 h); conditions: Homo sapiens; for GI50: SK-OV-3; for IC (TGI): SK-OV-3, 48 h, read-out: TGI; for CC50: SK-OV-3, read-out: LC50
HOP-92 (NSC lung cancer) = experiment: NCI-60 screen (SRB, 48 h); conditions: Homo sapiens; for GI50: HOP-92; for IC (TGI): HOP-92, 48 h, read-out: TGI
SF-268 (CNS cancer) = experiment: NCI-60 screen (SRB, 48 h); conditions: Homo sapiens; for GI50: SF-268; for IC (TGI): SF-268, 48 h, read-out: TGI; for CC50: SF-268, read-out: LC50
RXF 393 (Renal cancer) = experiment: NCI-60 screen (SRB, 48 h); conditions: Homo sapiens; for GI50: RXF 393; for IC (TGI): RXF 393, 48 h, read-out: TGI; for CC50: RXF 393, read-out: LC50
[1] = test system: MDA-MB-468 (Breast cancer); experiment: cells; conditions: Homo sapiens; for GI50: MDA-MB-468; for IC (TGI): MDA-MB-468, 48 h, read-out: TGI; for CC50: MDA-MB-468, read-out: LC50
SR (Leukemia) = experiment: NCI-60 screen (SRB, 48 h); assay type: cell-based
HCT-116 (Colon cancer) = experiment: NCI-60 screen (SRB, 48 h); conditions: Homo sapiens; for GI50: HCT-116; for IC (TGI): read-out: TGI
UACC-62 (Melanoma) = experiment: NCI-60 screen (SRB, 48 h); conditions: Homo sapiens; for GI50: UACC-62; for IC (TGI): UACC-62, 48 h, read-out: TGI; for CC50: UACC-62, read-out: LC50
[2] = test system: NIH 3T3 (non-malignant mouse fibroblasts); experiment: SRB cytotoxicity assay, 72 h; assay type: cell-based; conditions: NIH 3T3, 72 h, cut-off 30 µM
Outline: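 EC50 values reflect percent surviving cells versus untreated controls, read at 570 nm after SRB staining of TCA-fixed monolayers. Dosing spanned 0–30 µM over 72 h.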

SNB-75 (CNS cancer) = experiment: NCI-60 screen (SRB, 48 h); conditions: Homo sapiens; for GI50: SNB-75; for IC (TGI): SNB-75, 48 h, read-out: TGI; for CC50: SNB-75, read-out: LC50
OVCAR-5 (Ovarian cancer) = experiment: NCI-60 screen (SRB, 48 h); conditions: Homo sapiens; for GI50: OVCAR-5; for IC (TGI): OVCAR-5, 48 h, read-out: TGI; for CC50: OVCAR-5, read-out: LC50

CC1(C)CC[C@]23CC[C@]4(C)[C@H](CC[C@@H]5[C@@]6(C)CCCNC(C)(C)[C@@H]6CC[C@]54C)[C@H]2[C@H]1OC3 [Compound 7, Azepanoallobetulin]
IC (TGI) (Ovarian Cancer subpanel): 3.99 µM
GI50 (Ovarian Cancer subpanel): 1860 nM
CC50 (Ovarian Cancer subpanel): 12.3 µM
GI50 (COLO 205 (Colon cancer); Homo sapiens): 1280 nM
IC (TGI) (COLO 205 (Colon cancer); Homo sapiens): 2.68 µM
CC50 (COLO 205 (Colon cancer); Homo sapiens, COLO 205, read-out: LC50): 5.61 µM
GI50 (SF-539 (CNS cancer)): 1640 nM
IC (TGI) (SF-539 (CNS cancer)): 3.07 µM
CC50 (SF-539 (CNS cancer)): 5.78 µM
Growth % of the Most Sensitive Cell Lines (CAKI-1 (Renal cancer); CAKI-1, 1 dose 10 µM): −92.03%
GI50 (CAKI-1 (Renal cancer)): 1620 nM
IC (TGI) (CAKI-1 (Renal cancer)): 2.97 µM
CC50 (CAKI-1 (Renal cancer)): 5.45 µM
IC (TGI) (NSC lung cancer subpanel): 3.28 µM
GI50 (NSC lung cancer subpanel): 1490 nM
CC50 (NSC lung cancer subpanel): 6.73 µM
GI50 (MOLT-4 (Leukemia)): 2100 nM
IC (TGI) (MOLT-4 (Leukemia)): 5.04 µM
CC50 (MOLT-4 (Leukemia); MOLT-4, read-out: LC50): 74.8 µM
GI50 (PC-3 (Prostate cancer)): 1610 nM
IC (TGI) (PC-3 (Prostate cancer)): 3.17 µM
CC50 (PC-3 (Prostate cancer)): 6.25 µM
GI50 (M14 (Melanoma)): 1770 nM
IC (TGI) (M14 (Melanoma)): 3.31 µM
CC50 (M14 (Melanoma)): 6.19 µM
GI50 (HOP-62 (NSC lung cancer)): 1910 nM
IC (TGI) (HOP-62 (NSC lung cancer)): 3.75 µM
CC50 (HOP-62 (NSC lung cancer); HOP-62, read-out: LC50): 7.34 µM
GI50 (OVCAR-8 (Ovarian cancer)): 1870 nM
IC (TGI) (OVCAR-8 (Ovarian cancer)): 3.66 µM
GI50 (MDA-MB-435 (Melanoma)): 1650 nM
IC (TGI) (MDA-MB-435 (Melanoma)): 3.02 µM
CC50 (MDA-MB-435 (Melanoma)): 5.55 µM
Growth % of the Most Sensitive Cell Lines (786-0 (Renal cancer); 786-0, 1 dose 10 µM): −96.23%
GI50 (786-0 (Renal cancer); Homo sapiens): 1660 nM
IC (TGI) (786-0 (Renal cancer); Homo sapiens): 3.21 µM
CC50 (786-0 (Renal cancer); Homo sapiens, 786-0, read-out: LC50): 6.18 µM
GI50 (SK-OV-3 (Ovarian cancer)): 2730 nM
IC (TGI) (SK-OV-3 (Ovarian cancer)): 7.93 µM
CC50 (SK-OV-3 (Ovarian cancer)): 36.9 µM
GI50 (HOP-92 (NSC lung cancer)): 1410 nM
IC (TGI) (HOP-92 (NSC lung cancer)): 2.96 µM
GI50 (SF-268 (CNS cancer)): 2040 nM
IC (TGI) (SF-268 (CNS cancer)): 5.31 µM
CC50 (SF-268 (CNS cancer)): 31.5 µM
GI50 (RXF 393 (Renal cancer)): 1560 nM
IC (TGI) (RXF 393 (Renal cancer)): 2.98 µM
CC50 (RXF 393 (Renal cancer)): 5.69 µM
GI50 [1]: 1610 nM
IC (TGI) [1]: 3.45 µM
CC50 [1]: 7.39 µM
TGI (SR (Leukemia)): 4.12 µM
GI50 (SR (Leukemia); Homo sapiens): 1490 nM
CC50 (SR (Leukemia); Homo sapiens, read-out: LC50 (the source's name)): > 100 µM
GI50 (HCT-116 (Colon cancer)): 1520 nM
activity at 10 µM (HCT-116 (Colon cancer); HCT-116, 48 h, read-out: Growth % of the Most Sensitive Cell Lines): -99.4%
IC (TGI) (HCT-116 (Colon cancer); HCT-116, 48 h): 2.88 µM
CC50 (HCT-116 (Colon cancer); HCT-116, read-out: LC50): 5.47 µM
GI50 (UACC-62 (Melanoma)): 1790 nM
IC (TGI) (UACC-62 (Melanoma)): 3.21 µM
CC50 (UACC-62 (Melanoma)): 5.77 µM
EC50 [2]: n.s.
GI50 (SNB-75 (CNS cancer)): 1500 nM
IC (TGI) (SNB-75 (CNS cancer)): 2.94 µM
CC50 (SNB-75 (CNS cancer)): 5.76 µM
GI50 (OVCAR-5 (Ovarian cancer)): 1600 nM
IC (TGI) (OVCAR-5 (Ovarian cancer)): 3.04 µM
CC50 (OVCAR-5 (Ovarian cancer)): 5.8 µM

CC(C)=C1CCC=C2CC[C@]3(C)[C@H](CC[C@@H]4[C@@]5(C)CCCNC(C)(C)[C@@H]5CC[C@]43C)[C@H]21 [Compound 9]
IC (TGI) (Ovarian Cancer subpanel): 3.51 µM
GI50 (Ovarian Cancer subpanel): 1860 nM
CC50 (Ovarian Cancer subpanel): 6.19 µM
Growth % of the Most Sensitive Cell Lines (COLO 205 (Colon cancer); COLO 205, 1 dose 10 µM): −93.54%
GI50 (COLO 205 (Colon cancer); Homo sapiens): 1480 nM
IC (TGI) (COLO 205 (Colon cancer); Homo sapiens): 2.97 µM
GI50 (SF-539 (CNS cancer)): 1690 nM
IC (TGI) (SF-539 (CNS cancer)): 3.13 µM
CC50 (SF-539 (CNS cancer)): 5.8 µM
GI50 (CAKI-1 (Renal cancer)): 1690 nM
IC (TGI) (CAKI-1 (Renal cancer)): 3.05 µM
CC50 (CAKI-1 (Renal cancer)): 5.53 µM
IC (TGI) (NSC lung cancer subpanel): 3.27 µM
GI50 (NSC lung cancer subpanel): 1680 nM
CC50 (NSC lung cancer subpanel): 6.11 µM
GI50 (MOLT-4 (Leukemia)): 1590 nM
IC (TGI) (MOLT-4 (Leukemia)): 3.7 µM
GI50 (PC-3 (Prostate cancer)): 1580 nM
IC (TGI) (PC-3 (Prostate cancer)): 3.02 µM
CC50 (PC-3 (Prostate cancer)): 5.78 µM
GI50 (M14 (Melanoma)): 1730 nM
IC (TGI) (M14 (Melanoma)): 3.26 µM
CC50 (M14 (Melanoma)): 6.12 µM
GI50 (HOP-62 (NSC lung cancer)): 1700 nM
IC (TGI) (HOP-62 (NSC lung cancer)): 3.25 µM
GI50 (OVCAR-8 (Ovarian cancer)): 2010 nM
IC (TGI) (OVCAR-8 (Ovarian cancer)): 4.25 µM
Growth % of the Most Sensitive Cell Lines (OVCAR-8 (Ovarian cancer); OVCAR-8, 1 dose 10 µM): −87.34%
GI50 (MDA-MB-435 (Melanoma)): 1850 nM
IC (TGI) (MDA-MB-435 (Melanoma)): 3.28 µM
CC50 (MDA-MB-435 (Melanoma)): 5.81 µM
GI50 (786-0 (Renal cancer); Homo sapiens): 1710 nM
IC (TGI) (786-0 (Renal cancer); Homo sapiens): 3.48 µM
GI50 (SK-OV-3 (Ovarian cancer)): 1890 nM
IC (TGI) (SK-OV-3 (Ovarian cancer)): 3.5 µM
CC50 (SK-OV-3 (Ovarian cancer)): 6.46 µM
GI50 (HOP-92 (NSC lung cancer)): 1390 nM
IC (TGI) (HOP-92 (NSC lung cancer)): 2.77 µM
CC50 (HOP-92 (NSC lung cancer); HOP-92, read-out: LC50): 5.52 µM
GI50 (SF-268 (CNS cancer)): 1970 nM
IC (TGI) (SF-268 (CNS cancer)): 3.71 µM
CC50 (SF-268 (CNS cancer)): 6.98 µM
GI50 (RXF 393 (Renal cancer)): 1610 nM
IC (TGI) (RXF 393 (Renal cancer)): 3.1 µM
CC50 (RXF 393 (Renal cancer)): 5.98 µM
GI50 [1]: 1680 nM
IC (TGI) [1]: 3.3 µM
CC50 [1]: 6.5 µM
TGI (SR (Leukemia)): 3.16 µM
GI50 (SR (Leukemia); Homo sapiens): 1140 nM
GI50 (HCT-116 (Colon cancer)): 1730 nM
IC (TGI) (HCT-116 (Colon cancer); HCT-116, 48 h): 3.31 µM
GI50 (UACC-62 (Melanoma)): 1770 nM
IC (TGI) (UACC-62 (Melanoma)): 3.22 µM
CC50 (UACC-62 (Melanoma)): 5.85 µM
EC50 ([2]; Mus musculus, NIH3T3, read-out: EC50): 2650 ± 500 nM
GI50 (SNB-75 (CNS cancer)): 1980 nM
IC (TGI) (SNB-75 (CNS cancer)): 3.84 µM
CC50 (SNB-75 (CNS cancer)): 7.44 µM
GI50 (OVCAR-5 (Ovarian cancer)): 1670 nM
IC (TGI) (OVCAR-5 (Ovarian cancer)): 3.07 µM
CC50 (OVCAR-5 (Ovarian cancer)): 5.65 µM
